What all share (format): cell-based
Data set [1] can be described thus: cell viability and proliferation assay (WST8/CCK-8). To be noted: African green monkey, Vero cells (ATCC CCL-81); Vero cells; mean [95% confidence interval]. The procedure: (§1) Vero cell line (ATCC CCL-81) was selected as the model system to assess the effect of the isatin hybrids on normal epithelial cells, and a previously established protocol was used with minor modifications. Briefly, cells were cultured in RPMI-1640 medium supplemented with 10% fetal bovine serum (FBS) (Carlo Erba Reagents, Milan, Italy), 100 U/mL penicillin, and 100 µg/mL streptomycin at 37 °C with 5% CO2. For experiments, cells were seeded into 96-well plates at 10^4 cells/well, and incubated at 37 °C for 24 h. Following washes with PBS, the cell monolayer was incubated with 100 µL of medium containing the 2-fold serial dilutions of the compounds. Both untreated cells and cells incubated with medium containing solvent dilutions were included in each experiment as controls. The cell viability was assessed by a WST8-based assay according to the manufacturer’s instructions (CCK-8, Cell Counting Kit-8, Dojindo Molecular Technologies, Rockville, MD, USA). After 48 h of incubation, culture medium was removed from each well, the monolayer was washed with PBS, and 100 µL of fresh medium containing 10 µL of CCK-8 solution were added. After 2 h at 37 °C, the OD450nm was read, and data were expressed as the percentage of the cell viability relative to the untreated controls. The CC50 was obtained from the corresponding dose–response curves generated, as previously reported for IC50 values.
On the technique in general: Tetrazolium assays rely on reduction of a dye to a coloured formazan, in cell work by metabolically active cells.

Data set [2] deals with Vero cell line (ATCC CCL-81). The data set is described as above. To be noted: 100 μM, viability relative to untreated controls, mean ± SD. The procedure: as §1
A further data set concerns S. aureus MRSA 2. Description: dose-response against clinical isolate MRSA 2. To be noted: Staphylococcus aureus, mean [95% confidence interval]. The procedure:
(§2) The antimicrobial activity of the compounds was assessed by a well-established broth microdilution procedure in microtiter plates and in compliance with the Clinical and laboratory Standard Institute (CLSI) guidelines (Clinical and Laboratory Standards Institute, Wayne, PA, USA). In short, microbial inocula were prepared at 0.5 McFarland in PBS and, subsequently, bacterial suspensions were diluted 1:200 in Mueller–Hinton broth (Sigma-Aldrich, St. Louis, MO, USA), while fungal inoculum was diluted 1:20 in RPMI-1640 medium (Gibco®, ThermoFisher Scientific Inc., Waltham, MA, USA), containing 2% glucose and 0.3% levo-glutamine buffered to pH 7.0 with 0.165 M 3-(N-morpholino)propanesulfonic acid (MOPS). A total of 100 µL of these microbial suspensions were introduced in a 96-well microplate and incubated with 100 µL of the compounds, two-fold serially diluted in the range of 100–0.19 µM. Positive controls (microbial suspensions in regular media), negative controls (only compounds), and solvent controls (microbial suspensions incubated with DMSO dilutions) were included in the tests. The plate was incubated at 37 °C for 24 h, and subsequently, the optical density at 630 nm (OD630nm) was spectrophotometrically measured. Each experiment was carried out with three technical replicates (i.e., three wells per sample) and repeated at least two times for statistical power. […]

The subject of the next data set is S. aureus MRSA 3. Description: dose-response against clinical isolate MRSA 3. To be noted: Staphylococcus aureus, mean [95% confidence interval]. As for the experimental part: as §2
The next data set concerns S. aureus MRSA 4. Description: dose-response against clinical isolate MRSA 4. To be noted: Staphylococcus aureus, mean [95% confidence interval]. The procedure:
as §2

The test system of another data set is S. aureus MRSA 5. As to the kind of experiment: dose-response against clinical isolate MRSA 5. To be noted: Staphylococcus aureus, mean [95% confidence interval]. As for the experimental part: as §2

A word on the CC50: it is the concentration that lowers cell viability or growth by half. Higher therefore signals lower toxicity to the cells. What is called IC50 is the concentration at which inhibition is half-maximal. As to `O=C1Nc2cc(OC(F)(F)F)ccc2C1(c1c(Cl)nc2sccn12)c1c(Cl)nc2sccn12` [Compound 11, 3,3-bis(6-Chloroimidazo[2,1-b]thiazol-5-yl)-6-(trifluoromethoxy)indolin-2-one], in data set [1], the CC50 at 48 h came out at 63.3 µM. Besides, the “Cell proliferation, Vero” value in data set [2] is listed as “most toxic”. Besides, the viability at 100 µM in data set [2] (Chlorocebus sabaeus, Vero, 48 h, read-out: Cell proliferation, Vero) stood at 21.1 ± 3.3%. Besides, the IC50 was 27.5 µM with S. aureus MRSA 2, 8.7 µM with S. aureus MRSA 3, 11.3 µM in the data set with S. aureus MRSA 4 and 21.2 µM in the data set with S. aureus MRSA 5.

For the origin of these results see publication PMC11505029, “Isatin Bis-Imidathiazole Hybrids Identified as FtsZ Inhibitors with On-Target Activity Against Staphylococcus aureus” (Antibiotics, 2024).
